Read-outs that look alike come from different tables or passages of the source. One block for each compound: values may come before it. Residues, ends and D or L forms follow the SMILES beside them. No end group written: not given here.
Experiments:
rat = assay: Intravenous pharmacokinetic study in rat: observed adverse signs; format: in vivo; settings: intravenous bolus 5 mg/kg
[1] = molecular target: EED (embryonic ectoderm development) (Homo sapiens, UniProt O75530); assay: Binding to EED
human MrgX2 (hMrgX2) [2] = molecular target: T1, human MrgX2 (hMrgX2) (Homo sapiens, UniProt Q96LB1); assay: Ca2+ mobilization; format: cell-based
T1 sequence (Q96LB1 1-330): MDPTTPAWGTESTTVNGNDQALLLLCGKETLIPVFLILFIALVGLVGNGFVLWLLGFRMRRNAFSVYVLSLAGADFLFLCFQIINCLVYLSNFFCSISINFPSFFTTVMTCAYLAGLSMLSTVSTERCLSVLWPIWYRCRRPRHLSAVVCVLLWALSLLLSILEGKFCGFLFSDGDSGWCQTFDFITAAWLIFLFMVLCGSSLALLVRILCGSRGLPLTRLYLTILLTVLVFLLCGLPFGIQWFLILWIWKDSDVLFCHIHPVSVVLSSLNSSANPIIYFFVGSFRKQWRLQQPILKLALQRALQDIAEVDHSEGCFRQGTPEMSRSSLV

[3] = minipig; cited from earlier work
[4] = tested on: rat MrgX2 (rMrgX2, Mrgprb3); assay: Ca2+ mobilization; format: cell-based; settings: for calcium response (in words): no Gα16
[5] = cited from earlier work
[6] = molecular target: T2, mouse MrgX2 (mMrgX2, Mrgprb2) (Mus musculus, UniProt Q3KNA1); assay: Ca2+ mobilization; format: cell-based; settings: no Gα16, up to 1mM
T2 sequence (Q3KNA1 1-338): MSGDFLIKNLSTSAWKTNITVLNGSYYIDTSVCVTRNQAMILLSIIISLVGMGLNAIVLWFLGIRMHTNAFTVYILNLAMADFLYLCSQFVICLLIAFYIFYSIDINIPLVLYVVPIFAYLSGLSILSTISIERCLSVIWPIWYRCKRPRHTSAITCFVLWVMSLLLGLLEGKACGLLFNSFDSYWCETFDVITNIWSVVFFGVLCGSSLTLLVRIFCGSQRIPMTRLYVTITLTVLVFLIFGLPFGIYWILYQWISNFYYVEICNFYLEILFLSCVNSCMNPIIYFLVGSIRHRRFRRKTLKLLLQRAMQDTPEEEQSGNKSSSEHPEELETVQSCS

minipig MrgX2 (mpMrgX2) = molecular target: T3, minipig MrgX2 (mpMrgX2) (Sus scrofa, UniProt A0A4Y5P9C0); assay: Ca2+ mobilization; format: cell-based; settings: for calcium response (in words): truncated mpMrgX2
T3 sequence (A0A4Y5P9C0 38-367): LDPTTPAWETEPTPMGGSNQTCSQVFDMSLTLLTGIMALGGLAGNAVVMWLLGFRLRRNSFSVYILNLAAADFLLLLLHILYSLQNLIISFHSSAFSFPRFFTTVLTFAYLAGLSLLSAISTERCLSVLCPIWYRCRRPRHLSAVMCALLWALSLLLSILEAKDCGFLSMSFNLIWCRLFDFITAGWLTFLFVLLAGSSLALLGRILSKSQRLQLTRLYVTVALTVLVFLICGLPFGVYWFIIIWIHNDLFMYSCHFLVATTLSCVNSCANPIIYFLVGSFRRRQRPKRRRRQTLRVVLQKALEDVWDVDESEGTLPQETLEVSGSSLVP

[7] = tested on: U2OS cells (untransfected); assay: Ca2+ mobilization in U2OS cells lacking MrgX2; format: cell-based, human
[8] = dog, cited from earlier work
[9] = molecular target: T4, truncated beagle MrgX2 (beMrgX2) (Canis lupus familiaris, UniProt A0A4Y5P885); assay: Ca2+ mobilization; format: cell-based, beagle dog; settings: for calcium response (in words): truncated beMrgX2
T4 sequence (A0A4Y5P885 88-417): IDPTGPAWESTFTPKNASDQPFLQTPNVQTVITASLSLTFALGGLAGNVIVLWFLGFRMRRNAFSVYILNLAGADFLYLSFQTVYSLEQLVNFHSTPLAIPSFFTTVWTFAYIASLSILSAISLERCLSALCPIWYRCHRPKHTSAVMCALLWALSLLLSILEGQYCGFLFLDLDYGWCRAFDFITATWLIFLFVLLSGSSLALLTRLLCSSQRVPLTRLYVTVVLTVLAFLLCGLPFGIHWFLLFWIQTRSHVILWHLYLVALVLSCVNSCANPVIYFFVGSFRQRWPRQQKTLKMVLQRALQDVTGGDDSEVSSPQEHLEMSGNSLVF

pig MrgX2 (pMrgX2) = assay: Ca2+ mobilization; format: cell-based; settings: data not shown
human MrgX1 (hMrgX1) = human MrgX1 (hMrgX1) (Homo sapiens, UniProt Q96LB2); assay: Ca2+ mobilization; format: cell-based; settings: hMrgX1-Gα16 cells
Chain of human MrgX1 (hMrgX1) (Q96LB2 whole entry): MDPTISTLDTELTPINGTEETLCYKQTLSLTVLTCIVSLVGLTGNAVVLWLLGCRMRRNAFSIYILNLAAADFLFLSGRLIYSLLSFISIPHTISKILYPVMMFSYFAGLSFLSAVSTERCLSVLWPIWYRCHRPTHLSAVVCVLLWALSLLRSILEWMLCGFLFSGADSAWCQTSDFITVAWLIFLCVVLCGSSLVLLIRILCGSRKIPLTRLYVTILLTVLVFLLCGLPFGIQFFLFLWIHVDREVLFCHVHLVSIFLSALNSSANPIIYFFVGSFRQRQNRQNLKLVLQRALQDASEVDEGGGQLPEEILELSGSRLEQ

[10] = tested on: mouse MrgX2 versus human MrgX2; settings: cited from earlier work
HEK293-MSRII-Gα16 cells = assay: Ca2+ mobilization, untransfected HEK293-MSRII-Gα16 host cells; format: cell-based, human; settings: data not shown
mpMrgX2 = assay: Ca2+ mobilization, mpMrgX2 transfected into HEK293-MSRII-Gα16 cells; format: cell-based, minipig; settings: data not shown
human MrgX2 (hMrgX2) [11] = molecular target: T1, human MrgX2 (hMrgX2); assay: Ca2+ mobilization; format: cell-based; remark: listed apart in the source
[12] = untransfected U2OS parent cells

Chain of EED (embryonic ectoderm development) (O75530 whole entry, species assumed): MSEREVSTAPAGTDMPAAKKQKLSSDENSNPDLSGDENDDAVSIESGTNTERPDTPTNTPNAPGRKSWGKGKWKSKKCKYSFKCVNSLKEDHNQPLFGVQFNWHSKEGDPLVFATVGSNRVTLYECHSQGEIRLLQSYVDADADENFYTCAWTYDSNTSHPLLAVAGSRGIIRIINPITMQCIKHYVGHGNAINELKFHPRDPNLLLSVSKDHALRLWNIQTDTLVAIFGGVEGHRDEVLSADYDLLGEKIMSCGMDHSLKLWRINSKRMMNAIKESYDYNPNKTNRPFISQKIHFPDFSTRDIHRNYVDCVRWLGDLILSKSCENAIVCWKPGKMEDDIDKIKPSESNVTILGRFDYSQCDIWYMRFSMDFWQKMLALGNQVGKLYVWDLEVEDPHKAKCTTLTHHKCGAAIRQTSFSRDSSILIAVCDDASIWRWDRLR

Compound: CCCC[C@@H]1NC(=O)[C@@](C)(NC(C)=O)CCCC=CCCC[C@@](C)(C(=O)N[C@@H](CC(N)=O)C(=O)N[C@@H](CCCNC(=N)N)C(=O)N[C@@H](CCC(N)=O)C(=O)N[C@@H](CCCCN)C(=O)N[C@H](C(=O)N[C@@H](CC(C)C)C(=O)N[C@@H](CCC(=O)O)C(=O)N[C@@H](CCCNC(=N)N)C(=O)N[C@H](C(=O)N[C@@]2(C)CCCC=CCCC[C@@](C)(C(=O)N[C@@H](CCC(=O)O)C(=O)N[C@@H](Cc3c[nH]c4ccccc34)C(=O)N[C@@H](CCCCN)C(=O)N[C@@H](CCC(N)=O)C(=O)N[C@@H](CCCNC(=N)N)C(N)=O)NC(=O)[C@H](CC(N)=O)NC(=O)[C@H](CC(C)C)NC(=O)[C@H]([C@@H](C)CC)NC2=O)[C@@H](C)O)[C@@H](C)CC)NC(=O)[C@H](CO)NC(=O)[C@H](Cc2ccccc2)NC1=O (relative stereo) [Peptide 4]
- time to observation of symptoms (rat): ≤ 3 min
- IC50 (binding to EED) [1]: high affinity

- EC50 (human MrgX2 (hMrgX2) [2]): 39.8 µM
- Emax (human MrgX2 (hMrgX2) [2]): 87 ± 8%
- calcium response (in words) [6]: did not reach maximal effect at 1mM
- EC50 (minipig MrgX2 (mpMrgX2)): 158 µM
- Emax (minipig MrgX2 (mpMrgX2); U2OS): 84 ± 13%
- calcium response (in words) (minipig MrgX2 (mpMrgX2)): full or near‐full agonist
- EC50 [9]: 25.1 µM
- Emax ([9]; U2OS): 97 ± 12%
- calcium response (in words) [9]: full or near‐full agonist
Compound: CN[C@H](CC(C)C)C(=O)N[C@H]1C(=O)N[C@@H](CC(N)=O)C(=O)N[C@H]2C(=O)N[C@H]3C(=O)N[C@H](C(=O)N[C@H](C(=O)O)c4cc(O)cc(O)c4-c4cc3ccc4O)[C@H](O)c3ccc(c(Cl)c3)Oc3cc2cc(c3O[C@@H]2O[C@H](CO)[C@@H](O)[C@H](O)[C@H]2O[C@H]2C[C@](C)(N)[C@H](O)[C@H](C)O2)Oc2ccc(cc2Cl)[C@H]1O [vancomycin]
- Cmax [3]: 34000 ng/mL
- free Cmax [3]: ≈ 23 µmol/L
- histamine-like symptoms (in words) [3]: no histamine‐like symptoms were observed
- calcium response (in words) [4]: did not reach maximal effect at 1mM
- protein binding ([5]; serum): 50%
- Cmax ([5]; vancomycin-treated patients): > 30 µM
- trough (lowest) free serum concentration ([5]; vancomycin-treated patients): ≈ 5 ± 2 µmol/L
- trough serum concentration ([5]; vancomycin-treated patients): 13.6 ± 5.9 mg/L
- calcium response (in words) [7, 12]: Negligible calcium responses
- free Cmax ([8]; assuming 50% protein binding): ≈ 35 µmol/L
- Cmax [8]: ≈ 100 µg/ml
- histamine-like symptoms (in words) [8]: no histamine‐like symptoms were observed

Compound: CCCC[C@@H]1NC(=O)[C@@](C)(NC(C)=O)CCCC=CCCC[C@@](C)(C(=O)N[C@@H](CC(N)=O)C(=O)N[C@@H](CCCNC(=N)N)C(=O)N[C@@H](CCC(N)=O)C(=O)N[C@@H](CCCCN)C(=O)N[C@H](C(=O)N[C@@H](CC(C)C)C(=O)N[C@@H](CCCNC(=N)N)C(=O)N[C@@H](CCCNC(=N)N)C(=O)N[C@H](C(=O)N[C@@]2(C)CCCC=CCCC[C@@](C)(C(=O)N[C@@H](CCC(=O)O)C(=O)N[C@@H](Cc3c[nH]c4ccccc34)C(=O)N[C@@H](CCCCN)C(=O)N[C@@H](CCC(N)=O)C(=O)N[C@@H](CCCNC(=N)N)C(N)=O)NC(=O)[C@H](CC(N)=O)NC(=O)[C@H](CC(C)C)NC(=O)[C@H]([C@@H](C)CC)NC2=O)[C@@H](C)O)[C@@H](C)CC)NC(=O)[C@H](CO)NC(=O)[C@H](Cc2ccccc2)NC1=O (relative stereo) [GSK3212448]
- time to observation of symptoms (rat): ≤ 2 min
- calcium response (in words) (human MrgX2 (hMrgX2) [2]; hMrgX2-Gα16-U2OS cells): could activate hMrgX2‐Gα16‐U2OS
- fold more potent than reference agonist 48/80 ([4]; rMrgX2 in U2OS cells): 18 fold
- calcium response (in words) (minipig MrgX2 (mpMrgX2)): activated
- calcium response (in words) (pig MrgX2 (pMrgX2)): activated
- calcium response (in words) ([7]; U2OS cells transduced with Gα16 in the absence of hMrgX2): but not Gα16‐U2OS cells
- calcium response (in words) [9]: activated

Compound: VGRPEWWMDYNKRYG [BAM8-22]
- calcium response (in words) (human MrgX1 (hMrgX1)): higher potency at hMrgX1‐Gα16 cells

Compound: CAS #: 130308-48-4 [Icatibant]
- fold less potent at mouse than human MrgX2 [10]: twofold
- calcium response (in words) [7, 12]: No U2OS calcium response

Compound: C[C@@H](O)[C@@H]1NC(=O)[C@H](CCCCN)NC(=O)[C@H](Cc2c[nH]c3ccccc23)NC(=O)[C@H](Cc2ccccc2)NC(=O)[C@H](Cc2ccccc2)NC(=O)[C@H](CC(N)=O)NC(=O)[C@H](CCCCN)NC(=O)[C@@H](NC(=O)[C@@H]2CCCN2)CSSC[C@@H](C(=O)N[C@@H](CCCCN)C(=O)O)NC(=O)[C@H](CO)NC(=O)[C@H](CO)NC(=O)[C@H](Cc2ccccc2)NC1=O [Cortistatin-14] (HELM PEPTIDE1{P.C.K.N.F.F.W.K.T.F.S.S.C.K}$PEPTIDE1,PEPTIDE1,2:R3-13:R3$$$V2.0)
- calcium response (in words) [4]: conferred a response
- calcium response (in words) (HEK293-MSRII-Gα16 cells): failed to activate untransfected host cells
- calcium response (in words) [7, 12]: No U2OS calcium response
- calcium response (in words) (mpMrgX2): conferred calcium responses
- EC50 (human MrgX2 (hMrgX2) [11]): 0.316 to 0.794 µM

Compound: NCCc1c[nH]cn1 [histamine]
- calcium response (in words) (HEK293-MSRII-Gα16 cells): did not cause calcium release

From paper PMC6887720 (Pharmacology Research & Perspectives, 2019)
